By MIC is commonly meant the least concentration at which growth counts as inhibited.

Converted amounts (≈) assume the structure as drawn.

One data set concerns S. aureus ATCC 29213. Description: Minimum inhibitory concentration (MIC) assay, MSSA. It counts as cell-based. Conditions: Staphylococcus aureus, broth microdilution. As to the method:
(§1) The preparation of compounds listed in Table I can be carried out under conditions analogous to those described in the examples above. Those of skill in the art will recognize routine changes in reaction conditions and starting materials needed to produce the listed compounds. For example, compound 5 in Table I, is prepared by the method shown above, except tert-butyl (1-(pyrrolidin-3-yl)ethyl)carbamate, prepared by the method shown in Schoeder, et al., J. Heterocyclic Chem., 29: 1481-1498 (1992), is used as the amine starting material. Compound activity was evaluated in a standard minimal inhibitory concentration assay such as the assay provided in Example 4. Compound cytotoxicity is determined using a standard assay of cytotoxicity such as the assay provided in Example 5. Compounds 10, 14, and 20 of Table I are provided as comparative examples.
(§2) The antimicrobial activity of the compounds of the invention may be evaluated by a number of methods, including the following visual minimum inhibitory concentration (MIC) assay. This assay determines the minimum concentration of compound required to inhibit growth of a bacterial strain.
(§3) Whole-cell antibacterial activity is determined by broth microdilution using conditions recommended by the NCCLS (see National Committee for Clinical Laboratory Standards. 2001. Performance standards for antimicrobial susceptibility testing: 11th informational supplement. Vol. 21, no. 1, M100-S11. National Committee for Clinical Laboratory Standards, Wayne, Pa.). Test compounds are dissolved in DMSO and diluted 1:50 in Mueller-Hinton II broth (Becton-Dickinson) to produce a 256 μg/ml stock solution. In a 96-well microtiter plate, the compound solution is serially two-fold diluted in Mueller-Hinton II broth. After the compounds are diluted, a 50 μl aliquot of the test organism (˜1×10^6 cfu/mL) is added to each well of the microtiter plate. The final test concentrations range from 0.125-128 μg/mL. Inoculated plates are incubated in ambient air at 37° C. for 18 to 24 hours. The organisms selected for testing included laboratory strains S. aureus ATCC 29213 and E. coli ATCC 25922 (strains purchased from American Type Culture Collection, Manassas, Va.) m, S. aureus FQR700699, and Paeruginosa 27853. The minimum inhibitory concentration (MIC) is determined as the lowest concentration of compound that inhibited visible growth of the test organism.
Background: Dilution methods test growth across graded concentrations, often in twofold steps.

Data set [1] has as its system fluoroquinolone-resistant S. aureus ATCC 700699. Description: Minimum inhibitory concentration (MIC) assay, MRSA. It counts as cell-based. Particulars: Staphylococcus aureus, broth microdilution. As to the method: as §1, §2, §3
Another data set deals with Hep2. Nature of the data set: Cytotoxicity, cell viability staining with Alamar Blue. It counts as cell-based, human. Particulars: Hep2 cells. Also noted: unit not given here. The procedure: as §1
To determine whether the microcidal effect observed against S. aureus and E. coli is specific to bacterial cells, compounds are screened for cell viability effects on several human cell types.
Optimal cell density is first determined by plating cells in a 96-well plate standard sterile tissue culture plates in 100 μl media, 10% FBS at six cell densities from 500 cells/well to 15,000 cells/well. A cell free well containing only media is used as a control. Cells are incubated at 37° C. in a 5% CO2 incubator for 24 hours. 10% culture volume (10 ul) of Alamar Blue (Biosource, DAL1100, 100 mL) is then added. Cells are incubated at 37° C. in a 5% CO2 incubator and read in a Victor V plate reader, 544 nm excitation, 590 nm emission, at 3, 4, and 24 hours after the addition of Alamar Blue. The cell number vs. change in fluorescence is plotted to determine linearity of signal vs. cell number. The optimal density varies between 500-15,000 cells/well depending on the specific cell type. The optimal density is selected based on the highest number of cells that is still in the linear response range.
Cells are plated at optimal cell density in a standard sterile tissue culture 96 well plate, and incubated at 37° C., O/N in a 5% CO2 incubator. 12 to 48 hours post-plating media is removed. The cells are washed 1 or 2 times with 1×PBS and replaced with fresh media containing the test compound in 1% DMSO. 24 to 72 hours after addition of compound, the media is removed, and the cells washed 1 to 2 times with 1×PBS. Fresh media containing 1/10 volume of Alamar Blue is then added. Plates are incubated 4 hours at 37° C. in a 5% CO2 incubator and read in a Victor V plate reader, 544 nm excitation, 590 nm emission.
Compounds are diluted to 20 micromolar in 1% DMSO and media and screened in duplicate to obtain single concentration cytotoxicity data. Eight concentration points from 0.78 micromolar to 100 micromolar, run in duplicate, are used to determine cytotoxicity CC50 values. Cells with 1% DMSO and media are used as a negative control, compounds having a known CC50 against a particular cell type are used as positive controls.
The change in fluorescence vs. concentration of test compound is plotted to determine the cytotoxicity of the compound.
(The colour change of resazurin is a common sign of viable cells or microbes.)

As for `COc1c(N2CC[C@@H](CNC(C)=O)C2)c(F)cc2c(=O)c3c(O)c(C(C)=O)sc3n(C3CC3)c12` [Compound 11, (S)-N-((1-(2-acetyl-9-cyclopropyl-6-fluoro-3-hydroxy-8-methoxy-4-oxo-4,9-dihydrothieno [2,3-b]quinolin-7-yl)pyrrolidin-3-yl)methyl) acetamide], the MIC against S. aureus ATCC 29213 came out at 0.13 µg/mL (≈ 0.267 µM); in data set [1], 0.5 µg/mL (≈ 1.03 µM). In addition, the “Cytotoxicity Hep2” value in the data set with Hep2 was determined as 60.

Values taken from US20130165471A1, “2-SUBSTITUTED-THIENOQUINOLONES AND RELATED COMPOUNDS AS ANTI-INFECTIVE AGENTS” (Achillion Pharmaceuticals Inc., priority 2011, published 2013).
